pIC50: −log10 of the molar value. Active and inactive are the calls of the source. No cut-off for these calls is given here. A value given as a limit tells only on which side of the number the result lay.

Experiment [1] deals with T1, 2-Hydroxyacid oxidase 2 (Rattus norvegicus) (UniProt Q07523).
T1 sequence (whole entry): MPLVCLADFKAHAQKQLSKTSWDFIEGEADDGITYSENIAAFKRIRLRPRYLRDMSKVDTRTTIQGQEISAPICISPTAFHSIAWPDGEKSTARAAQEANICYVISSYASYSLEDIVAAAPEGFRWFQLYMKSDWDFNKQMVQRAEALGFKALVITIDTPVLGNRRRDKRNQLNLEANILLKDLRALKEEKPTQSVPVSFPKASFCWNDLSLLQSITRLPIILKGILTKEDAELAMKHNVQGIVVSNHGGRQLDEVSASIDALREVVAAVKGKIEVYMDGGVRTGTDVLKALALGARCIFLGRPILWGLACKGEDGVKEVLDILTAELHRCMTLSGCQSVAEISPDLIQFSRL
In words: Inhibition of rat His6-tagged Hao2 expressed in Escherichia coli BL21/DE3 using 2-hydroxyoctanoic acid as substrate at 10 uM measured every 10 secs by spectrophotometry.

In experiment [2] the test system is Rattus norvegicus. The experiment is described as follows: Antihypertensive activity in DOCA-salt treated Wistar rat assessed as decrease in systolic blood pressure at 10 mg/kg, po bid administered 29 days after DOCA-salt-challenge for 15 days 12 to 15 hrs post-last dose by plethysmography. Conditions: Artery. Type of experiment: functional, organism-based. More on the design: dose 10 mg/kg.

For a further experiment, the target named is T2, 2-Hydroxyacid oxidase 2 (Rattus norvegicus, UniProt Q07523).
T2 sequence (Q07523 whole entry): T1 sequence (whole entry)
In words: Inhibition of rat His6-tagged Hao2 expressed in Escherichia coli BL21/DE3 using 2-hydroxyoctanoic acid as substrate measured every 10 secs by spectrophotometry.

Experiment [3] deals with T3, 2-Hydroxyacid oxidase 1 (Rattus norvegicus) (UniProt B0BNF9).
T3 sequence (whole entry): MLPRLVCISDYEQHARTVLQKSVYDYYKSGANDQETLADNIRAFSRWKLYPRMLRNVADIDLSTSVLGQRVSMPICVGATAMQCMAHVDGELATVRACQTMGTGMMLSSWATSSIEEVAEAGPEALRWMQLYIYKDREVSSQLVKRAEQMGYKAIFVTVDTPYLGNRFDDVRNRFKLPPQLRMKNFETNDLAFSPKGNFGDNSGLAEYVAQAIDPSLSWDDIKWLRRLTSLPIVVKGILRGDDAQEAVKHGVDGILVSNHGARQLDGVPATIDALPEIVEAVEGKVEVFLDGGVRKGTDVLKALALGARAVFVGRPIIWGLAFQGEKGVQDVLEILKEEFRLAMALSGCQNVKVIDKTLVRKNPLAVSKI
The experiment is described as follows: Inhibition of rat His6-tagged Hao1 expressed in Escherichia coli BL21/DE3 using glcolic acid as substrate at 10 uM measured every 10 secs by spectrophotometry.

Experiment [4] has as its target Hydroxycarboxylic acid receptor 2 (Homo sapiens) (UniProt Q8TDS4). In words: Agonist activity at human GPR109a at 10 uM. The experiment is classed as functional.
The test system of a further experiment is HepG2. In words: Cytotoxicity against human HepG2 cells. Type of experiment: cell-based.
Experiment [5] deals with Rattus norvegicus. The experiment is described as follows: Antihypertensive activity in DOCA-salt treated Wistar rat assessed as decrease in systolic blood pressure at 3 mg/kg, po bid administered 29 days after DOCA-salt-challenge for 15 days 12 to 15 hrs post-last dose by plethysmography. The experiment is classed as functional.
For experiment [6], the system named is Rattus norvegicus. In words: Antihypertensive activity in DOCA-salt treated Wistar rat assessed as decrease in systolic blood pressure at 30 mg/kg, po bid administered 29 days after DOCA-salt-challenge for 15 days 12 to 15 hrs post-last dose by plethysmography. The experiment is classed as functional, Artery.
In experiment [7] the test system is Rattus norvegicus. In words: Ex-vivo inhibition of Hao2 in DOCA-salt treated Wistar rat kidney using [3H]-2-hydroxyoctanate as substrate assessed as inhibition of [3H]-H2O production at 3 mg/kg, po bid administered 29 days post DOCA-challenge for 15 days measured 1 hr post-last dose by microbeta counting relative to vehicle-treated control. Type of experiment: functional.

Experiment [8] deals with Rattus norvegicus. In words: Ex-vivo inhibition of Hao2 in DOCA-salt treated Wistar rat kidney using [3H]-2-hydroxyoctanate as substrate assessed as inhibition of [3H]-H2O production at 30 mg/kg, po bid administered 29 days post DOCA-challenge for 15 days measured 1 hr post-last dose by microbeta counting relative to vehicle-treated control. The experiment is classed as functional.

Experiment [9] has as its system Rattus norvegicus. In words: Ex-vivo inhibition of Hao2 in DOCA-salt treated Wistar rat kidney using [3H]-2-hydroxyoctanate as substrate assessed as inhibition of [3H]-H2O production at 3 mg/kg, po bid administered 29 days post DOCA-challenge for 15 days measured 12 to 15 hrs post-last dose by microbeta counting relative to vehicle-treated control. Type of experiment: functional.

Experiment [10] concerns Rattus norvegicus. In words: Ex-vivo inhibition of Hao2 in DOCA-salt treated Wistar rat kidney using [3H]-2-hydroxyoctanate as substrate assessed as inhibition of [3H]-H2O production at 30 mg/kg, po bid administered 29 days post DOCA-challenge for 15 days measured 12 to 15 hrs post-last dose by microbeta counting relative to vehicle-treated control. Type of experiment: functional.

The species entered for experiment [11] is Rattus norvegicus. The experiment is described as follows: Selectivity ratio of IC50 for rat Hao1 to IC50 for rat Hao2.

Chain of Hydroxycarboxylic acid receptor 2 (Homo sapiens) (Q8TDS4 whole entry): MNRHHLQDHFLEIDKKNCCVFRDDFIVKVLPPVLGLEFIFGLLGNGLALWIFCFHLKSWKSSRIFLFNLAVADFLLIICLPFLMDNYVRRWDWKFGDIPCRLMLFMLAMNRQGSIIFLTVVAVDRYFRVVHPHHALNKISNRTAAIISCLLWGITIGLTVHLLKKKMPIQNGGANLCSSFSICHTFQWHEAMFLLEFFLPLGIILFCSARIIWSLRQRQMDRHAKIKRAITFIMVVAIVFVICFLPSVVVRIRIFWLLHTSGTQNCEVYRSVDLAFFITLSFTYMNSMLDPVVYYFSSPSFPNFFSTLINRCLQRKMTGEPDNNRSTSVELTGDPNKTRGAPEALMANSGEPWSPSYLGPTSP

For orientation: inhibition means the relative decrease from the control value, in per cent. `Cc1n[nH]c(C(=O)O)c1-c1ccc(F)cc1`: the inhibition in [1] is 35%.

In the case of `CC(C)NCC(O)COc1ccc(CC(N)=O)cc1` (stereo not drawn), the result with Rattus norvegicus [2] was Active.

The term pIC50 denotes the IC50 on a negative log10 scale, so that one unit is a factor of ten. The low end stands for a large IC50, the high end for a small IC50. `Cc1[nH]nc(C(=O)O)c1CCc1ccccc1`: the pIC50 at 2-Hydroxyacid oxidase 2 is 5.37.

In general, inhibition in vivo refers to the percentage by which the read-out fell short of the control. `Cc1n[nH]c(C(=O)O)c1Cc1cc2ccccc2s1`: the inhibition entry in experiment [3] was “inactive”. For the same compound, in experiment [4], the result was inactive. For the same compound, in the experiment with HepG2, the pIC50 is less than 4.00. Moreover, the Activity in the experiment with Rattus norvegicus [5] came out at 27 mmHg; with Rattus norvegicus [6], 33 mmHg. In addition, the inhibition in vivo at 3 mg/kg in the experiment on Rattus norvegicus [7] was 75%; in the experiment with Rattus norvegicus [9], 0%. For the same compound, the values for the inhibition in vivo at 30 mg/kg with Rattus norvegicus [8] and in the experiment with Rattus norvegicus [10] were 93% and 42%, respectively. Moreover, the Ratio IC50 in the experiment listed under Rattus norvegicus [11] came out at 150.

These data come from ChEMBL document CHEMBL2021770, “Potent and Selective Inhibitors of Long Chain l-2-Hydroxy Acid Oxidase Reduced Blood Pressure in DOCA Salt-Treated Rats” (ACS Med Chem Lett, 2011).
